A value given as a limit tells only on which side of the number the result lay.

The target of one assay is CYP2C19 (Homo sapiens, UniProt P33261). Nature of the assay: CYP2C19 inhibition (fluorescent substrate CEC). It is filed as in vitro ADME. The following applies: read-out: Cyp IC50 (μM) 2C19. The procedure: (§1) CYP (Cytochrome P450) enzymes are the major drug metabolizing enzymes present in the liver. The inhibition of CYP enzyme activity (IC50) for each of CYP1A2, CYP2C19, CYP2C9, CYP2D6, CYP3A4(BFC) and CYP3A4(BQ) is determined for compounds, where inhibition of metabolism of a known substrate leads to a decrease in the fluorescence of the metabolized product. The fluorescence of the product is monitored as a function of compound concentration. Compounds are dissolved in dimethyl sulfoxide to a concentration of 100 mM. These are diluted […], into 82 μL of acetonitrile. An 11 μL aliquot of this solution is then added to 204 μL of cofactor mix (1.3% NADPH Regeneration system Solution A, 1.04% NADPH Regeneration system Solution B from BD Biosciences, 5% acetonitrile and 0.05% dimethyl sulfoxide). These are then serially diluted 1:1 (160 μL to 160 μL co-factor mix) for a total of 10 points. A 10 μL aliquot of this final mixture is dispensed into 384 well assay plates and incubated for 10 minutes at 37° C. Enzyme and substrate mix (10 μL; 0.5 pmol CYP1A2/5 μM CEC; 1.0 pmol CYP2C9/75 μM MFC; 0.5 pmol CYP2C19/25 μM CEC; 1.5 pmol CYP2D6/1.5 μM AMMC; 1.0 pmol CYP3A4/50 μM BFC; or 1.0 pmol CYP3A4/40 μM BQ) is added to these assay plates. Assay plates are incubated at 37° C. (CYP1A2-15 min; CYP2C9-45 min; CYP2C19, 2D6 and 3A4-30 min) and read in a Tecan Safire 2 plate reader (CYP1A2, 2C19 and 3A4 409 ex/460 em; CYP2C9 and 2D6 409 ex/530 em). The signal versus compound concentration is used to determine the IC50. The enzymes and substrates for this assay are obtained from BD Biosciences.
Sequence of CYP2C19 (P33261 whole entry): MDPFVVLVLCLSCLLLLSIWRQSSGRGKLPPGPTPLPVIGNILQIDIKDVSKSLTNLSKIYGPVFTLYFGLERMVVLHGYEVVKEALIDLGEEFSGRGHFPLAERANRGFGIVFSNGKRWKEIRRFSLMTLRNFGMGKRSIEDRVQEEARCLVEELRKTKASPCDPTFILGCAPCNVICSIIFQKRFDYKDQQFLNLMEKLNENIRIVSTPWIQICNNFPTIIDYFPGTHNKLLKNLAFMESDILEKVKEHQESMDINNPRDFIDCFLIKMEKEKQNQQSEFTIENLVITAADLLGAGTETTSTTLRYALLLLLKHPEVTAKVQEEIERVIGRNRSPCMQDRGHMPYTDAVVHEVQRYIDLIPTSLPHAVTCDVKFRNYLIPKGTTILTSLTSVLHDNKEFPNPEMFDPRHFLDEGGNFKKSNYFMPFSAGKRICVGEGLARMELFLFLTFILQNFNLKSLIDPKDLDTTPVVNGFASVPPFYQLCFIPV

The target of the next assay is c-Raf-1 (Homo sapiens, UniProt P04049). Nature of the assay: c-Raf-1 kinase activity assay (AlphaScreen, biotin-MEK1 substrate). The following applies: 100 μM ATP, 100 nM biotin-MEK1, 45 minutes at room temperature; read-out: Biochemical activity (IC50 μM) c-Raf-1. Put shortly: (§2)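 Each Raf enzyme (0.1 ng) phosphorylates 100 nM biotin-MEK1 in pH 7.0 HEPES with Mg2+/Mn2+, 100 μM ATP final, 45 min at room temperature. Phospho-MEK1/2 antibody with AlphaScreen beads is read after 3 h. IC50 comes from an 8-point dilution series.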
Sequence of c-Raf-1 (P04049 whole entry Y340D/Y341D, form open): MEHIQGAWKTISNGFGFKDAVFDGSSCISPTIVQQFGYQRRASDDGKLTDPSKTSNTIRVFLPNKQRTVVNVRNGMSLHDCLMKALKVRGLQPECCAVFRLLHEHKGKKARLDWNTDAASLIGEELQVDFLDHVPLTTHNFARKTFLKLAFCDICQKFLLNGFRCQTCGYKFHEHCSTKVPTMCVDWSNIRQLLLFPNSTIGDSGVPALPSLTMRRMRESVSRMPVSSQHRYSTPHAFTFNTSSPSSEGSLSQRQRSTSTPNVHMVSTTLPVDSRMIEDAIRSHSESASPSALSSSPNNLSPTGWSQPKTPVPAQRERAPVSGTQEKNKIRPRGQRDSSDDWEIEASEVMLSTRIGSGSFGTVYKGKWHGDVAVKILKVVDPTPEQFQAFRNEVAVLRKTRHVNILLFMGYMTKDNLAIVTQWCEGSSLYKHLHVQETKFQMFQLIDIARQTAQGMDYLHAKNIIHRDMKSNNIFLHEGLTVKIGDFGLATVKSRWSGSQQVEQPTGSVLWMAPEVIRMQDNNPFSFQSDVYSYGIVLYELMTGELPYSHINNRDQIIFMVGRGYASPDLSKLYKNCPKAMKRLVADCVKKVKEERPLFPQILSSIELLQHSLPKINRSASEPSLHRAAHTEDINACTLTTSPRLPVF
For orientation: In Alpha technology, singlet oxygen from a donor bead excites a nearby acceptor bead.

A further assay deals with B-Raf V600E (Homo sapiens, UniProt P15056, V600E). Nature of the assay: B-Raf V600E kinase activity assay (AlphaScreen, biotin-MEK1 substrate). The following applies: 100 μM ATP, 100 nM biotin-MEK1, 45 minutes at room temperature, read-out: Biochemical activity (IC50 μM) V600E. Put shortly: as §2
Sequence of B-Raf V600E (P15056 whole entry V600E): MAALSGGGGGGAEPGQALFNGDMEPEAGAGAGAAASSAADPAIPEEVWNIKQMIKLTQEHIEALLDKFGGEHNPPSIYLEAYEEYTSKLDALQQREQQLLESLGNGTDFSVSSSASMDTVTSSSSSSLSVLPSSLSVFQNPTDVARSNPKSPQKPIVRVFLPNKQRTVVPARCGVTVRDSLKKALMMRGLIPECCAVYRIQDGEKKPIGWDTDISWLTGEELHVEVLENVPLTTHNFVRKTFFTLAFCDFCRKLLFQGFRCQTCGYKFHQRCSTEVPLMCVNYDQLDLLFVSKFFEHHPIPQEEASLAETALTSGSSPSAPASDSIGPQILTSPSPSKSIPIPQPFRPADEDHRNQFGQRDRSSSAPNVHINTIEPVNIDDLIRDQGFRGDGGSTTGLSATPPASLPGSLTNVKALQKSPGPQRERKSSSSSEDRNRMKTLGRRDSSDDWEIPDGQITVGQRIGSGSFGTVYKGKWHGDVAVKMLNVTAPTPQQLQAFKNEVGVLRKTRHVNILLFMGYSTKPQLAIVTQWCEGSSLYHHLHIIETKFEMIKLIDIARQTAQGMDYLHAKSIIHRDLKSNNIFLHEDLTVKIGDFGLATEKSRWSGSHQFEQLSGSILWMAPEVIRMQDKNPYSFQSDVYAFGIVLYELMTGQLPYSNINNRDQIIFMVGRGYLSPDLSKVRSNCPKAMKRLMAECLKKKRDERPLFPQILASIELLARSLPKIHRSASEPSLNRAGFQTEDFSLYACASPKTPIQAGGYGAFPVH
Another assay deals with B-Raf (Homo sapiens, UniProt P15056). Nature of the assay: B-Raf kinase activity assay (AlphaScreen, biotin-MEK1 substrate). The following applies: 100 μM ATP, 100 nM biotin-MEK1, 45 minutes at room temperature; read-out: Biochemical activity (IC50 μM) B-Raf. In short, it runs like this:
as §2

The target in the next assay is CYP3A4(BFC) (Homo sapiens, UniProt P08684). As to the kind of experiment: CYP3A4 inhibition (substrate BFC). The following applies: read-out: Cyp IC50 (μM) 3A4(BFC). The class given is in vitro ADME. Here is the method:
as §1

A further assay concerns the target CYP2D6 (Homo sapiens, UniProt P10635). Nature of the assay: CYP2D6 inhibition (fluorescent substrate AMMC). It is filed as in vitro ADME. The following applies: read-out: Cyp IC50 (μM) 2D6. Here is the method:
as §1

The target in the next assay is T1, CYP1A2 (Homo sapiens, UniProt P05177).
T1 sequence (P05177 1-516): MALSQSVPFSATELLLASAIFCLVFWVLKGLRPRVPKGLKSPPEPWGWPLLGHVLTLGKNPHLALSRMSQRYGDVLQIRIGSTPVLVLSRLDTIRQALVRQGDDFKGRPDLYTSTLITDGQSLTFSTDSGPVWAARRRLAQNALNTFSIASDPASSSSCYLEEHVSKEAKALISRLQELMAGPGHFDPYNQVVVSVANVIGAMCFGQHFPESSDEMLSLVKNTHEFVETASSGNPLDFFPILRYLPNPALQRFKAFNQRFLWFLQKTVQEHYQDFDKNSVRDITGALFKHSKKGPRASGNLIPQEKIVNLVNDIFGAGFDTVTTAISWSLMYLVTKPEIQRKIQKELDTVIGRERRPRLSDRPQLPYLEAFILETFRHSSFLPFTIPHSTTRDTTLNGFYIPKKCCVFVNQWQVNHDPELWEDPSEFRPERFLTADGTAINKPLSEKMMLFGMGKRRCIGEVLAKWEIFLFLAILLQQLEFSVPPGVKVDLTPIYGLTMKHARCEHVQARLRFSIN
Nature of the assay: CYP1A2 inhibition (fluorescent substrate CEC). It is filed as in vitro ADME. The following applies: read-out: Cyp IC50 (μM) 1A2. The procedure:
as §1

Sequence of B-Raf (P15056 whole entry): as the sequence (P15056 whole entry V600E) above, with E600V counted along it
Sequence of CYP2D6 (P10635 whole entry): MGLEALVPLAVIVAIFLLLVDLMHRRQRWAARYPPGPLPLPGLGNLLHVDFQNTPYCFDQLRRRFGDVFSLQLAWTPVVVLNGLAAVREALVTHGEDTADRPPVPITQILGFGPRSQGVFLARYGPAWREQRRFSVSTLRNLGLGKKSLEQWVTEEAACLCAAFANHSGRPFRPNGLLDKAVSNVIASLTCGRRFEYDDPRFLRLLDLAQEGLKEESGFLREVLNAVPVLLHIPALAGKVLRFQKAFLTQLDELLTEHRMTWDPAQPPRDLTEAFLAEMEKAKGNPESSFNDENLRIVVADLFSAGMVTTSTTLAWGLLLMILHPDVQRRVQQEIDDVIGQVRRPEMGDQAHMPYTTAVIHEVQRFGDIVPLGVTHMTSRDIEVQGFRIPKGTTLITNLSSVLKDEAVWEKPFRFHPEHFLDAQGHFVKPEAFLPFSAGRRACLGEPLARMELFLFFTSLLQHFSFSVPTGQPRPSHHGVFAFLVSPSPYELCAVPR
Sequence of CYP3A4(BFC) (P08684 whole entry): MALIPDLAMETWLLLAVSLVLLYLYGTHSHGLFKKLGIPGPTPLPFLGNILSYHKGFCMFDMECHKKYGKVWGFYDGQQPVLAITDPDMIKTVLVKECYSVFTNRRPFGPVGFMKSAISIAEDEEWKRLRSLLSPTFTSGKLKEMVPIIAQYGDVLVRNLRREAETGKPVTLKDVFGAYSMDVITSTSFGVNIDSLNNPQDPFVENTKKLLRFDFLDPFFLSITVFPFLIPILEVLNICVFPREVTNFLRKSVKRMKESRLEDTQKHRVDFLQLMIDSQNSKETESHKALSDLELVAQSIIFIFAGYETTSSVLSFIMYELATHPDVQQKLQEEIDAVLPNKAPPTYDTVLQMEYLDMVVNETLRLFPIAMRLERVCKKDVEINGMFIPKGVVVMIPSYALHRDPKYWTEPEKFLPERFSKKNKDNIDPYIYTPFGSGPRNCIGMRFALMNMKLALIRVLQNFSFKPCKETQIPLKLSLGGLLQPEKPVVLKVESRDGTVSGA

Consider `CNC(=O)n1ncc2cc(-c3cnc4[nH]cc(C(=O)c5c(F)ccc(NS(=O)(=O)c6cc(F)ccc6F)c5F)c4c3)ccc21` [P-0003, 5-{3-[3-(2,5-Difluoro-benzenesulfonylamino)-2,6-difluoro-benzoyl]-1H-pyrrolo[2,3-b]pyridin-5-yl}-indazole-1-carboxylic acid methylamide], for which the IC50 (in general, the concentration needed to halve the response being measured) is less than 5 µM at CYP2C19; less than 0.1 µM on c-Raf-1; less than 0.1 µM on B-Raf V600E; less than 0.1 µM on B-Raf; more than 10 µM on CYP3A4(BFC); more than 10 µM on CYP2D6. The IC50 on CYP1A2 is more than 10 µM.

For the molecule `CCCS(=O)(=O)Nc1ccc(F)c(C(=O)c2c[nH]c3ncc(-c4ccc5ncsc5c4)cc23)c1F` [P-0020, Propane-1-sulfonic acid [3-(5-benzothiazol-6-yl-1H-pyrrolo[2,3-b]pyridine-3-carbonyl)-2,4-difluoro-phenyl]-amide], the half-maximal inhibitory concentration (IC50) on CYP2C19 is 5 to 10 µM; at c-Raf-1 it was less than 0.1 µM; on B-Raf V600E, less than 0.1 µM; on B-Raf, less than 0.1 µM; at CYP3A4(BFC), more than 10 µM; at CYP2D6, more than 10 µM. Also, the half-inhibitory concentration (IC50) on CYP1A2 is more than 10 µM.

For `CC(=O)n1ncc2cc(-c3cnc4[nH]cc(C(=O)c5c(F)ccc(NS(=O)(=O)c6cc(F)ccc6F)c5F)c4c3)ccc21` [P-0005, N-{3-[5-(1-Acetyl-1H-indazol-5-yl)-1H-pyrrolo[2,3-b]pyridine-3-carbonyl]-2,4-difluoro-phenyl}-2,5-difluoro-benzenesulfonamide], the concentration for half-maximal inhibition (IC50) was less than 5 µM on CYP2C19; less than 0.1 µM on c-Raf-1; less than 0.1 µM on B-Raf V600E; less than 0.1 µM at B-Raf; more than 10 µM on CYP3A4(BFC); more than 10 µM on CYP2D6. For the same molecule, at CYP1A2, the 50% inhibitory concentration (IC50) was more than 10 µM.

Consider `CCCS(=O)(=O)Nc1ccc(F)c(C(=O)c2c[nH]c3ncc(-c4ccc5[nH]cc(C)c5c4)cc23)c1F` [P-0023, Propane-1-sulfonic acid {2,4-difluoro-3-[5-(3-methyl-1H-indol-5-yl)-1H-pyrrolo[2,3-b]pyridine-3-carbonyl]-phenyl}-amide], for which the IC50 is less than 5 µM at CYP2C19; less than 0.1 µM on c-Raf-1; less than 0.1 µM on B-Raf V600E; less than 0.1 µM on B-Raf; more than 10 µM at CYP3A4(BFC); more than 10 µM at CYP2D6. In addition, the IC50 at CYP1A2 is more than 10 µM.

On to `CCCS(=O)(=O)Nc1ccc(F)c(C(=O)c2c[nH]c3ncc(-c4ccc5cncnc5c4)cc23)c1F` [P-0025, Propane-1-sulfonic acid [2,4-difluoro-3-(5-quinazolin-7-yl-1H-pyrrolo[2,3-b]pyridine-3-carbonyl)-phenyl]-amide], for which the concentration for half-maximal inhibition (IC50) on CYP2C19 was more than 10 µM; at c-Raf-1, less than 0.1 µM; at B-Raf V600E it was less than 0.1 µM; at B-Raf, less than 0.1 µM; at CYP3A4(BFC), more than 10 µM; at CYP2D6, more than 10 µM. In addition, the IC50 at CYP1A2 was more than 10 µM.

Take `Cc1ncc(-c2cnc3[nH]cc(C(=O)c4c(F)ccc(NS(=O)(=O)c5cc(F)ccc5F)c4F)c3c2)cn1` [P-1503, N-{2,4-Difluoro-3-[5-(2-methyl-pyrimidin-5-yl)-1H-pyrrolo[2,3-b]pyridine-3-carbonyl]-phenyl}-2,5-difluoro-benzenesulfonamide]: the IC50 is more than 10 µM at CYP2C19; less than 0.1 µM on c-Raf-1; less than 0.1 µM on B-Raf V600E; less than 0.1 µM at B-Raf; more than 10 µM on CYP3A4(BFC); more than 10 µM at CYP2D6. For the same molecule, at CYP1A2, the IC50 was more than 10 µM.

With `CCCS(=O)(=O)Nc1ccc(F)c(C(=O)c2c[nH]c3ncc(-c4ccc5cn(C)nc5c4)cc23)c1F` [P-0011, Propane-1-sulfonic acid {2,4-difluoro-3-[5-(2-methyl-2H-indazol-6-yl)-1H-pyrrolo[2,3-b]pyridine-3-carbonyl]-phenyl}-amide], the half-maximal inhibitory concentration (IC50) at CYP2C19 was more than 10 µM; on c-Raf-1, less than 0.1 µM; at B-Raf V600E it was less than 0.1 µM; on B-Raf it was less than 0.1 µM; at CYP3A4(BFC) it was more than 10 µM; at CYP2D6, more than 10 µM. In addition, the IC50 on CYP1A2 is less than 5 µM.

Turning to `O=C(c1c(F)ccc(NS(=O)(=O)c2ccc(C(F)(F)F)cc2)c1F)c1c[nH]c2ncc(-c3cnn(C4CCNCC4)c3)cc12` [P-1004, N-{2,4-Difluoro-3-[5-(1-piperidin-4-yl-1H-pyrazol-4-yl)-1H-pyrrolo[2,3-b]pyridine-3-carbonyl]-phenyl}-4-trifluoromethyl-benzenesulfonamide], the IC50 at CYP2C19 was more than 10 µM; at c-Raf-1, less than 0.1 µM; at B-Raf V600E it was less than 0.1 µM; on B-Raf, less than 0.1 µM; on CYP3A4(BFC), 5 to 10 µM; at CYP2D6, more than 10 µM. Moreover, the IC50 at CYP1A2 is more than 10 µM.

The values are drawn from patent publication US9440969B2, “Compounds and methods for kinase modulation, and indications therefor” (PLEXXIKON INC., priority 2009, dated 2016).
